Assay results reported in article PMC9100673, “Acridine Based N-Acylhydrazone Derivatives as Potential Anticancer Agents: Synthesis, Characterization and ctDNA/HSA Spectroscopic Binding Properties” (Molecules, 2022).

Assays:
A549 cells [1] = experiment: MTT assay, metabolic activity of A549 cells; type: cell-based, human; details: for SI, selectivity index: 48 h, IC50 CCD-18Co / IC50 A549; for IC50: Homo sapiens
Protocol: The effect of acridine-benzohydrazides (3a–3d) on the metabolic activity of the lung adenocarcinoma cell line (A549) and the normal colon fibroblast cell line (CCD-18Co) was evaluated using a 3-(4,5-dimethylthiazol-2-yl)-2,5-diphenyltertrazolium bromide (MTT) cell assay. This assay is based on the metabolization of yellow MTT to purple formazan crystal by mitochondrial dehydrogenases, and therefore only metabolic active cells are capable of that reaction. The CCD-18Co cell line was used as a control to check for derivatives selectivity. The doxorubicin belongs to a group of anthracyclines, which represent the chemotherapeutic regiments for the treatment of NSCLC (non-small cell lung carcinoma) even today, and acts as antineoplastic mainly by interaction with the DNA topoisomerase II and by creating DNA single- and double-strand breaks. Previous studies described detailed cytotoxic effects of doxorubicin in the human lung adenocarcinoma A549 cell line. Doxorubicin resembles our compounds in its biological action; therefore, it was employed as a positive control.
Human lung carcinoma cell line A549 and CCD-18Co colon fibroblasts were purchased from the American Type Culture Collection (ATCC, Rockville, MD, USA). The A549 cells were cultured in a complete RPMI-1640 medium (Sigma-Aldrich, St. Louis, MO, USA) and CCD-18Co cells were cultured in a minimum essential medium (MEM) (PAN-Biotech GmbH, Aidenbach, Germany) at 37 °C, 95% humidity and 5% CO2. The media were supplemented with 10% fetal bovine serum (FBS, Biosera, Nuaille, France) and antibiotics (1% Antibiotic-Antimycotic 100 × and 50 × 10^−3 g L^−1 gentamicin, Biosera). Prior to the selected treatments, cells were seeded on 6- and/or 96-well plates (TPP, Trasadingen, Switzerland) and left to settle for 24 h. The acridine compounds solutions (at concentrations ranging from 5–75 µM) were then added to cells for 24 or 48 h, and analysis was subsequently performed.
MTT assays were performed in order to evaluate changes in the metabolic activity of cells that had occurred as a consequence of treatment with the acridine compounds. A549 cells (15 × 10^3 cells/cm^2) and CCD-18Co (15.625 × 10^3 cells/cm^2) were seeded in 96-well microplates. The A549 cells were treated for 24 and 48 h, and the CCD-18Co cells were treated for 48 h with different concentrations (5, 25, 50 and 75 µM) of the derivatives. After the treatment, the MTT (3-(4,5-dimethylthiazol-2-yl)-2,5-diphenyltertrazolium bromide) solution in PBS (5 mg mL^−1) was added to each well. The reaction was stopped after 4 h incubation, and the formazan was dissolved by the addition of SDS at a final concentration of 3.3%. The absorbance of formazan (λ = 584 nm) was measured using a BMG FLUOstar Optima spectrometer (BMG Labtech GmbH, Offenburg, Germany). The results were evaluated as percentages of the absorbance of the untreated control. Results are presented as the average percentage of cells from three independent experiments. IC50 values for the derivatives were extrapolated from a sigmoidal fit (dose-response curve) to the metabolic activity data using OriginPro 8.5.0 SR1 (OriginLab Corp., Northampton, MA, USA).

A549 cells [2] = experiment: Quantification of cell number and viability (eosin staining, Bürker chamber); type: cell-based, human; details: 50 μM, 48 h
Protocol: For the assessment of total cell numbers and viability within individual experimental groups, floating and adherent cells were harvested after treatment with the studied compounds and evaluated using a Bürker chamber with eosin staining. A549 cells were plated at a density of 135 × 10^3 cell/well into a 6-well plate and treated with different concentration of derivatives (25 and 50 µM) for 48 h. The total cell number was expressed as a percentage of the untreated control of the total cell number. Viability was expressed as a percentage of viable, eosin negative cells. The results are presented as the average percentage of cells from three independent experiments.

A549 cells [3] = experiment: Cell cycle analysis by flow cytometry; type: cell-based, human; details: 25 and 50 μM, 48 h
Protocol: For flow cytometric analysis of the cell cycle distribution, floating and adherent cells were harvested together 48 h after treatment with the compounds (25 and 50 µM), washed in cold PBS, fixed in cold 70% ethanol, and stored overnight at −20 °C. Prior to analysis, the cells were washed twice in PBS, resuspended in a staining solution (0.1% Triton X-100, 0.137 g L^−1 ribonuclease A and 0.02 g L^−1 propidium iodide (PI) and incubated in dark conditions at RT for 30 min. The DNA content was analysed using a BD FACSCalibur flow cytometer (Becton Dickinson, San Jose, CA, USA) with a 488 nm argon-ion excitation laser, and fluorescence was detected using a 585/42 nm band-pass filter (FL-2). ModFit 3.0 software (Verity Software House, Topsham, ME, USA) was used to generate DNA content frequency histograms and to quantify the percentage of cells in the individual cell cycle phases. The results are presented as the average ratio of cells in the individual phase to all cells from three independent experiments.

hTopo IIα = hTopo IIα (Homo sapiens, UniProt P11388); experiment: Topo IIα kDNA decatenation assay; type: biochemical; details: 25, 50 and 100 μM
Protocol: The Topo IIα enzyme catalysed the decatenation of catenated kDNA to closed circular decatenated kDNA. In one specific case, linear (L) and nicked-opened (NC) forms of DNA could by observed. […] The m-Amsacrine (AMSA) (lane 2) was the observed band for catenated DNA.
Figure 12 The result of Topo I/IIα activity tests in the presence of derivatives 3a–3d. (A) Electrophoretogram for inhibition relaxation activity of hTopo I (2.5 U) by derivatives 3a–3d in concentrations of 25, 50 and 100 μM (lane 5–16), substrate-free SC pBR322 (0.5 μg) (lane 4), camptothecin (CPT, lane 2) and plasmid+hTopo I control (lane 3). (NOC—nicked-opened DNA form; R—relaxed DNA form; SC—supercoiled DNA form). (B) Electrophoretogram for inhibition decatenation activity of hTopo IIα (0.5 U) by derivatives 3a–3d in concentrations of 25, 50 and 100 μM (lane 5–16), substrate-free catenated kinetoplast DNA (cat kDNA) (0.5 μg) (lane 4), m-Amsacrine (AMSA, lane 2) and plasmid +hTopo IIα control (lane 3). (decat DNA—decatenated DNA; NC—nicked circular DNA form; L—linear DNA form).

Chain of hTopo IIα (P11388 whole entry): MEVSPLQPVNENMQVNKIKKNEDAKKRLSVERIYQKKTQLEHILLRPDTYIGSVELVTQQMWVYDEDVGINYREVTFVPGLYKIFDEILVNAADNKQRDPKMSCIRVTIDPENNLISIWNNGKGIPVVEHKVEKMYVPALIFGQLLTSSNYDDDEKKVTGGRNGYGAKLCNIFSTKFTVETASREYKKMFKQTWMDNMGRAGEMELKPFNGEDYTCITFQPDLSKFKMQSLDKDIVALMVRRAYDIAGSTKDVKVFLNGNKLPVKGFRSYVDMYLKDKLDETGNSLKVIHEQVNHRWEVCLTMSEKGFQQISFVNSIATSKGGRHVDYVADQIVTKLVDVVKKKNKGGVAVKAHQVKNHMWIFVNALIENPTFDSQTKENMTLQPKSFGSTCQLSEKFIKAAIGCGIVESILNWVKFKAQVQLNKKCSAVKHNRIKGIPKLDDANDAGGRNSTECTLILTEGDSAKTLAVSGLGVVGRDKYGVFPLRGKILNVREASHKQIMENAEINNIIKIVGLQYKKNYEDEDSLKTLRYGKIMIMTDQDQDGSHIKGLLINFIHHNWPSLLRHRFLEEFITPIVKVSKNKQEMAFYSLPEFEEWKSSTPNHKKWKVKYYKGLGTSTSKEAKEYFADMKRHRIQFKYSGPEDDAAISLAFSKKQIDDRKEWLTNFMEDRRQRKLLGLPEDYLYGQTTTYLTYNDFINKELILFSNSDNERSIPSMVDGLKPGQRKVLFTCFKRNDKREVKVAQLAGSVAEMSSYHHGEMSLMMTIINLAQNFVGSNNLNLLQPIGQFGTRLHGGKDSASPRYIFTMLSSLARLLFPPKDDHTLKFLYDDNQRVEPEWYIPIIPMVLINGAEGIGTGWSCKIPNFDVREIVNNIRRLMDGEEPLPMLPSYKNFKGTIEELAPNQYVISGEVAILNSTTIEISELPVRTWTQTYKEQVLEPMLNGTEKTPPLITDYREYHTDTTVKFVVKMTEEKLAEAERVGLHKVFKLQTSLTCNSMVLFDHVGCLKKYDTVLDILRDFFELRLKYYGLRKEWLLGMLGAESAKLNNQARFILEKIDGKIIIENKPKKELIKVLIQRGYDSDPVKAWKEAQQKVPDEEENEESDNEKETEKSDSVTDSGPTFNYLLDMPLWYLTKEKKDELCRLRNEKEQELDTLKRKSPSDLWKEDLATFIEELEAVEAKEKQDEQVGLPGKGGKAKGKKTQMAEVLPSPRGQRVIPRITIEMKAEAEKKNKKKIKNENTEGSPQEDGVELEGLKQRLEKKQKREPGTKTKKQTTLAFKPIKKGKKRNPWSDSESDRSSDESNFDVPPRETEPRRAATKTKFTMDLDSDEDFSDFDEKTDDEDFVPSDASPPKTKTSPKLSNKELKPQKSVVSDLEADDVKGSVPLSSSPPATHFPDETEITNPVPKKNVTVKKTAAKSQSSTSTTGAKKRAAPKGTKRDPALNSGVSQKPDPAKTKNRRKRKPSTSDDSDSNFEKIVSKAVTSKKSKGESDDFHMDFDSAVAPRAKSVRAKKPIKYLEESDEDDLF

SMILES: O=C(N/N=C/c1cccc2cc3ccccc3nc12)c1ccc(Cl)cc1 [3c, N′-[(E)-Acridin-4-ylmethylidene]-4-chlorobenzohydrazide]
- SI, selectivity index (A549 cells [1]): 0.36
- IC50 (A549 cells [1]; A549, 24 h): 73 µM
- IC50 (A549 cells [1]; A549, 48 h): 45 µM
- decrease of viability of A549 cells vs control (A549 cells [2]): 14%
- reduction of total cell number vs control (A549 cells [2]): ~91%
- effect on cell cycle distribution (A549 cells [3]): accumulation of cells in the G2/M phase
- inhibition of decatenation activity of Topo IIα (hTopo IIα): partial inhibition

SMILES: O=C(N/N=C/c1cccc2cc3ccccc3nc12)c1ccc(Br)cc1 [3d, N′-[(E)-Acridin-4-ylmethylidene]-4-bromobenzohydrazide]
- SI, selectivity index (A549 cells [1]): 0.31
- IC50 (A549 cells [1]; A549, 24 h): > 75 µM
- IC50 (A549 cells [1]; A549, 48 h): 55 µM
- inhibition of decatenation activity of Topo IIα (hTopo IIα): partial inhibition

SMILES: O=C(N/N=C/c1cccc2cc3ccccc3nc12)c1ccc(F)cc1 [3b, N′-[(E)-Acridin-4-ylmethylidene]-4-fluorobenzohydrazide]
- SI, selectivity index (A549 cells [1]): 0.22
- IC50 (A549 cells [1]; A549, 24 h): > 75 µM
- IC50 (A549 cells [1]; A549, 48 h): 37 µM
- inhibition of decatenation activity of Topo IIα (hTopo IIα): No obvious inhibitory effects

SMILES: O=C(N/N=C/c1cccc2cc3ccccc3nc12)c1ccccc1 [3a, N′-[(E)-(Acridin-4-yl)methylidene]benzohydrazide]
- IC50 (A549 cells [1]; A549, 24 h): > 75 µM
- IC50 (A549 cells [1]; A549, 48 h): 43 µM
- decrease of viability of A549 cells vs control (A549 cells [2]): 34%
- reduction of total cell number vs control (A549 cells [2]): approximately 94%
- effect on cell cycle distribution (A549 cells [3]): accumulation of cells in the G2/M phase
- inhibition of decatenation activity of Topo IIα (hTopo IIα): No obvious inhibitory effects
